Experimental data from ChEMBL document CHEMBL5291721, “A preclinical secondary pharmacology resource illuminates target-adverse drug reaction associations of marketed drugs” (Nat Commun, 2023).

Experiments:
Estrogen receptor = target: T1, Estrogen receptor (Homo sapiens, UniProt P03372)
T1 sequence (P03372 whole entry): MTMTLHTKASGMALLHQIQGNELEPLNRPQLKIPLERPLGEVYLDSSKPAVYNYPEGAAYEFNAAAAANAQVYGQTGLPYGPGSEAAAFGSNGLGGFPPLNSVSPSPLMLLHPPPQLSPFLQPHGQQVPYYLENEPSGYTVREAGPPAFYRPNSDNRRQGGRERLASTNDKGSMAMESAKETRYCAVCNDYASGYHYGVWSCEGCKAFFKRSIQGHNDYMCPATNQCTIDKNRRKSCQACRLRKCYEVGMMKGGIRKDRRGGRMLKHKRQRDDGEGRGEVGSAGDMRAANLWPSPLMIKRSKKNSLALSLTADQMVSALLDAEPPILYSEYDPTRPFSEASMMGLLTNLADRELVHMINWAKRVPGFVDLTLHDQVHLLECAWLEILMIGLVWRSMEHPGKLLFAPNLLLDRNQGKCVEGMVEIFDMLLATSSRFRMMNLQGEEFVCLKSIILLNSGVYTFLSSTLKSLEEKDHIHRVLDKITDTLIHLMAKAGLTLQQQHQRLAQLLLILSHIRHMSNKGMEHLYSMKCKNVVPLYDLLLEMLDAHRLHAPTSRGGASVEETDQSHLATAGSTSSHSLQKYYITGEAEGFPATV

Histamine H3 receptor = Histamine H3 receptor (Homo sapiens, UniProt Q9Y5N1)
[1] = target: 3',5'-cyclic-AMP phosphodiesterase 4A (Homo sapiens, UniProt P27815); type: functional
[2] = target: Sodium-dependent dopamine transporter (Homo sapiens, UniProt Q01959)
Thromboxane A2 receptor = target: T2, Thromboxane A2 receptor (Homo sapiens, UniProt P21731); type: functional, cell-based
T2 sequence (P21731 whole entry): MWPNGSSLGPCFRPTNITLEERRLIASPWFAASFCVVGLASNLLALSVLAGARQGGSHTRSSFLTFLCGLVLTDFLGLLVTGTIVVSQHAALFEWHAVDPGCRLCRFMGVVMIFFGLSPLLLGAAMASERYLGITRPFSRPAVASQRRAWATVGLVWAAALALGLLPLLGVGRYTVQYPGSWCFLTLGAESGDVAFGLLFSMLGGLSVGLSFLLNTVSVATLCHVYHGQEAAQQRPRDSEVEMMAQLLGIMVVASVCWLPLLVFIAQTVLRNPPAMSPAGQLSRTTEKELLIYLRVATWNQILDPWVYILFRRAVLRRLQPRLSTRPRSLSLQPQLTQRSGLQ

[3] = target: Beta-1 adrenergic receptor (Homo sapiens, UniProt P08588); type: functional, cell-based
[4] = target: Beta-3 adrenergic receptor (Homo sapiens, UniProt P13945)
B1 bradykinin receptor = target: T3, B1 bradykinin receptor (Homo sapiens, UniProt P46663)
T3 sequence (P46663 whole entry): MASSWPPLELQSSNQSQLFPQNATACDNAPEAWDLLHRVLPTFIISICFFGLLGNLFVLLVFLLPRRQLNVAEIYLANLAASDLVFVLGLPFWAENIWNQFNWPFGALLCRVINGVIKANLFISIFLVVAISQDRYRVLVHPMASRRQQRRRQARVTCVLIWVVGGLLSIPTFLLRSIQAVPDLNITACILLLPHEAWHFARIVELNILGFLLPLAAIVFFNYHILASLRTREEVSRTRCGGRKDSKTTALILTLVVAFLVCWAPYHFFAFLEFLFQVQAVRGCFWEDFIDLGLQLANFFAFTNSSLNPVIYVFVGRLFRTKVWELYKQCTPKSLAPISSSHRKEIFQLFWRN

Glucagon receptor = Glucagon receptor (Homo sapiens, UniProt P47871)
[5] = target: T4, Neuropeptide Y receptor type 2 (Homo sapiens, UniProt P49146)
T4 sequence (P49146 whole entry): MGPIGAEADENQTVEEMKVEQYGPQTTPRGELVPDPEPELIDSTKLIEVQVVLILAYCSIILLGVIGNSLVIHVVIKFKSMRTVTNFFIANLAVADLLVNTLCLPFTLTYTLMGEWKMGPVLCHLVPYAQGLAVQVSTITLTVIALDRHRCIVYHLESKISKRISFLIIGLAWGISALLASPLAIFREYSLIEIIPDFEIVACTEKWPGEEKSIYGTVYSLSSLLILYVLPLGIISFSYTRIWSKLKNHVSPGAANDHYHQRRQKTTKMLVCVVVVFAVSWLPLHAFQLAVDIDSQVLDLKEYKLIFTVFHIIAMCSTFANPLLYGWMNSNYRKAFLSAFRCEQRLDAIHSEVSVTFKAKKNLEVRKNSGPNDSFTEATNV

Substance-P receptor = Substance-P receptor (Homo sapiens, UniProt P25103)
[6] = target: T5, Alpha-1A adrenergic receptor (Homo sapiens, UniProt P35348)
T5 sequence (P35348 whole entry): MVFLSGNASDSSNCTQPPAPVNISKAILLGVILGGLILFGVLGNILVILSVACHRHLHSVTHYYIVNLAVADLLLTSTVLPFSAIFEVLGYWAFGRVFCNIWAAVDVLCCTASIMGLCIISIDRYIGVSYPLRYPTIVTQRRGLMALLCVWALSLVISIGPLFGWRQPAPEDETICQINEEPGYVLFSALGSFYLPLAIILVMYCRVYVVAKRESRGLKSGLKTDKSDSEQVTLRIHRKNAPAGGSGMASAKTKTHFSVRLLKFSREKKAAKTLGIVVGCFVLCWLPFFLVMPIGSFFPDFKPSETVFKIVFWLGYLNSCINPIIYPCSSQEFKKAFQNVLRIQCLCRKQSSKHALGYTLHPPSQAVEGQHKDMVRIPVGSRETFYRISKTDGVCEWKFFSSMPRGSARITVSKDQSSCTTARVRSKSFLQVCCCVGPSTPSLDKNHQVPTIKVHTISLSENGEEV

[7] = target: Sodium channel protein type 5 subunit alpha (Homo sapiens, UniProt Q14524); type: functional, cell-based
Also: assay procedure not described here.

Beta-3 adrenergic receptor, sequence (P13945 whole entry): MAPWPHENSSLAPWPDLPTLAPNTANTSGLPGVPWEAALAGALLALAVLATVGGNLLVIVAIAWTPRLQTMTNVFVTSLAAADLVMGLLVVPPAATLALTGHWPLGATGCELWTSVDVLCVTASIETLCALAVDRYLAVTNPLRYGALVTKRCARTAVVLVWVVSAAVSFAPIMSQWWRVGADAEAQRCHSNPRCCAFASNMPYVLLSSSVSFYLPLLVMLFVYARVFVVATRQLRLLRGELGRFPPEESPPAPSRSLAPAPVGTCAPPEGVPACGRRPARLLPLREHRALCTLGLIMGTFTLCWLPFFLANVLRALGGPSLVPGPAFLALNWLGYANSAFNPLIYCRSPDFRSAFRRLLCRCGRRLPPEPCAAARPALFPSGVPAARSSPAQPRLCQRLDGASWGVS
Glucagon receptor, sequence (P47871 whole entry): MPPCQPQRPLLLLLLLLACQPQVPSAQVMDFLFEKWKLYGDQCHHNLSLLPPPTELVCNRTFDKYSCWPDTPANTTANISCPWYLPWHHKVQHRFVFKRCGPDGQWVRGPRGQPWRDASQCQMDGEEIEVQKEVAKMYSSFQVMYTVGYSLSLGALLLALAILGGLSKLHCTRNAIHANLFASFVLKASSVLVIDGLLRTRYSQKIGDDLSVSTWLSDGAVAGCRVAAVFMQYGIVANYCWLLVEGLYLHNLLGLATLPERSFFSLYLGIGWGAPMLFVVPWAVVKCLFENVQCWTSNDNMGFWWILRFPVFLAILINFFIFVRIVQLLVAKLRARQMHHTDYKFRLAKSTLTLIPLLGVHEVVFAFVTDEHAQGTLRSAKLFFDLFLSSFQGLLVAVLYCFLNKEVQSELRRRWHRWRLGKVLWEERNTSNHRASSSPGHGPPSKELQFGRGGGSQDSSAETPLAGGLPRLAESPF
Sodium channel protein type 5 subunit alpha, sequence (Q14524 whole entry): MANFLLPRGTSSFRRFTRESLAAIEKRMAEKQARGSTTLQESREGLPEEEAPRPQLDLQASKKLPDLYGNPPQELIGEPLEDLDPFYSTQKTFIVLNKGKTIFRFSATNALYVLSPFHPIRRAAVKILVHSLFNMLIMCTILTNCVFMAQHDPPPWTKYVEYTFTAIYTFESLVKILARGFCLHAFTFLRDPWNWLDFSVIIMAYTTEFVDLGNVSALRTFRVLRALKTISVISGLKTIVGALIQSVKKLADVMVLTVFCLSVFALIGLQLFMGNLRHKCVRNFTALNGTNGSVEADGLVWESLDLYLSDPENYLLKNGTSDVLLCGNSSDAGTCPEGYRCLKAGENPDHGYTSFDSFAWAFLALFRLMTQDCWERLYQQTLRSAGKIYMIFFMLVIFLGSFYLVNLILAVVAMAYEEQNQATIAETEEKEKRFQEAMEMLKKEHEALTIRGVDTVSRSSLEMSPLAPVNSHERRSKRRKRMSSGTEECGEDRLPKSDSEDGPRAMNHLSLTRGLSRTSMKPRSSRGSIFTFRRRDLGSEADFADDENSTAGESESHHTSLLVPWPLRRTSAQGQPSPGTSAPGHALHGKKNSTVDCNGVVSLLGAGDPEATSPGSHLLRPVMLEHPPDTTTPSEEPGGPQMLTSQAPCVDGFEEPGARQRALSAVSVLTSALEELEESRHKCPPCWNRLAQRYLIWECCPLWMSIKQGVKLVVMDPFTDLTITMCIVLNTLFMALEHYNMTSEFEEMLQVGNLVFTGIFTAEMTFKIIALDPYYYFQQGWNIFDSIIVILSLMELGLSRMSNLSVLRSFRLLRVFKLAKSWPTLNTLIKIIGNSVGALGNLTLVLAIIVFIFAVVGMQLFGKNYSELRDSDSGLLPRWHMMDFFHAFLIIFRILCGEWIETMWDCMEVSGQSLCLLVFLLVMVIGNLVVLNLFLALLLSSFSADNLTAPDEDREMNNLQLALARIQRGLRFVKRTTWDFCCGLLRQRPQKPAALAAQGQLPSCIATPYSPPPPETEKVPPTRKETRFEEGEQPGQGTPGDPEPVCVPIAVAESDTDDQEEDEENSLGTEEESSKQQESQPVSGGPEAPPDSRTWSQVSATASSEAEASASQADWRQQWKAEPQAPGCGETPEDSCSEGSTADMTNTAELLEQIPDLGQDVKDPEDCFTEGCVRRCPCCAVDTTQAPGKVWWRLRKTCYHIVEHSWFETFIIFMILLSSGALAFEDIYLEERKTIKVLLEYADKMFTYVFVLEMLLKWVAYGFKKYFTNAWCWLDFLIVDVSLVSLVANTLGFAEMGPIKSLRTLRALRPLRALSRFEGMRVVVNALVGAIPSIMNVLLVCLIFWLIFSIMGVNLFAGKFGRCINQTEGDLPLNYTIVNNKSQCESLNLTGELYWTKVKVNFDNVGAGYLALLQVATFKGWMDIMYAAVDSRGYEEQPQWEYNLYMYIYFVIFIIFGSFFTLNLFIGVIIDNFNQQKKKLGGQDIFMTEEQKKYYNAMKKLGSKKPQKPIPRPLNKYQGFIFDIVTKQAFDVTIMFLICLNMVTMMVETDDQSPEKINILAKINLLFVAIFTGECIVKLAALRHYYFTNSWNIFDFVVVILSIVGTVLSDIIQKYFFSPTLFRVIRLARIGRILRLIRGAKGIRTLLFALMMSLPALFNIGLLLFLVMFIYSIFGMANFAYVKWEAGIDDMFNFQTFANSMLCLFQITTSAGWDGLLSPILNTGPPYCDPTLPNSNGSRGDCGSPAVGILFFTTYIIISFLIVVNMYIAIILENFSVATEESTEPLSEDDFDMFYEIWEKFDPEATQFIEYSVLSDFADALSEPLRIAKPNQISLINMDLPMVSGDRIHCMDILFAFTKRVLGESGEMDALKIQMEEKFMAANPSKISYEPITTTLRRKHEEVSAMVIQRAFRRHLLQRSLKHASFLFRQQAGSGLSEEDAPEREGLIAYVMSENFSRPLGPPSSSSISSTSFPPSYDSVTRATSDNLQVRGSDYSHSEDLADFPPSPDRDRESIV
Substance-P receptor, sequence (P25103 whole entry): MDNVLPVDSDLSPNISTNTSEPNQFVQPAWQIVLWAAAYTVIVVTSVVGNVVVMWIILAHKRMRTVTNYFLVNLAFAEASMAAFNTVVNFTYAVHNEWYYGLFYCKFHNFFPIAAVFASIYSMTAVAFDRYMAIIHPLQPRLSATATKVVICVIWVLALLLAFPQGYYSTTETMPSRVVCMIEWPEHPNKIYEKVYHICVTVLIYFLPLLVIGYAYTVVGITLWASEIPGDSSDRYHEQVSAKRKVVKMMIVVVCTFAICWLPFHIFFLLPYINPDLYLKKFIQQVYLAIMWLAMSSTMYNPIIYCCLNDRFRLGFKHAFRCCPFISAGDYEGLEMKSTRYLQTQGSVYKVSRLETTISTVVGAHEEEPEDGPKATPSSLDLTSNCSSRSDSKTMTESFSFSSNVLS
3',5'-cyclic-AMP phosphodiesterase 4A, sequence (P27815 whole entry): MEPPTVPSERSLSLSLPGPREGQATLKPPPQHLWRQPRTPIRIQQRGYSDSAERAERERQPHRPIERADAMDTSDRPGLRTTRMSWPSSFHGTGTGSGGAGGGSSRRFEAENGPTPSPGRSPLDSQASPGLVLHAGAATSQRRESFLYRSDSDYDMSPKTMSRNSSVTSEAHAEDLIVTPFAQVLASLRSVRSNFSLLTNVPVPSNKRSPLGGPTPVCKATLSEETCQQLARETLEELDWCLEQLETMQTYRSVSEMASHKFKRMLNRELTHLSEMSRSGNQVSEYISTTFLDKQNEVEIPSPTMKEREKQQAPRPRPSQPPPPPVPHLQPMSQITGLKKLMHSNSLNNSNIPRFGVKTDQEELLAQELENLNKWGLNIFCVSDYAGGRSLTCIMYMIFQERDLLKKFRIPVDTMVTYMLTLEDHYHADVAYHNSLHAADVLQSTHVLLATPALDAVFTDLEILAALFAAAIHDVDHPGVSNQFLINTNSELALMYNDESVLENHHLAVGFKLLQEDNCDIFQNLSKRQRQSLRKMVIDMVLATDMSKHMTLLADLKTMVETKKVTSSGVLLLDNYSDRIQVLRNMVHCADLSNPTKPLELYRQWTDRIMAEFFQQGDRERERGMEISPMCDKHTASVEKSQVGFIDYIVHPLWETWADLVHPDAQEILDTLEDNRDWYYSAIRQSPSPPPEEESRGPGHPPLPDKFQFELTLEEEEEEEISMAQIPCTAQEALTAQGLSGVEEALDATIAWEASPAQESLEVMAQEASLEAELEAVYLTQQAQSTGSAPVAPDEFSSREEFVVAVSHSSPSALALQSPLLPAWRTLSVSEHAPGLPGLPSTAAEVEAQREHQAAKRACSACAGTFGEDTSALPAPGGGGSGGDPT
Beta-1 adrenergic receptor, sequence (P08588 whole entry): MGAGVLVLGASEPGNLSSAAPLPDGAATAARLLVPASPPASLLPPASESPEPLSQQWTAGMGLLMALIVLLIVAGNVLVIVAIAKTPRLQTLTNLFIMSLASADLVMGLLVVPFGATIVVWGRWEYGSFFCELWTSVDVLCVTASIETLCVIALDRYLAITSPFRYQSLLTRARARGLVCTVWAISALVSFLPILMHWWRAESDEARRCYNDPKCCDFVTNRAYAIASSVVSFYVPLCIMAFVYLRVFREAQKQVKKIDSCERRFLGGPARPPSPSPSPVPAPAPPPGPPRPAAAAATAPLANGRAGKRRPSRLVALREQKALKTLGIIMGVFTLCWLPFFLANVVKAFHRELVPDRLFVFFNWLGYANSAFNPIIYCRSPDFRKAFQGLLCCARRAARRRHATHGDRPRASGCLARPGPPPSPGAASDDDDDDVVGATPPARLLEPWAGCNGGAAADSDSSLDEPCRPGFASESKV

Fc1ccc(C(c2ccccc2)(c2ccccc2F)n2ccnc2)cc1 (stereo unspecified) [FLUTRIMAZOLE]
AC50 (Estrogen receptor): > 30 µM

CO[C@]12C[C@@H](COC(=O)c3cncc(Br)c3)CN(C)[C@@H]1Cc1cn(C)c3cccc2c13 [NICERGOLINE]
AC50 (Histamine H3 receptor): 7.91 µM
AC50 [1]: > 30 µM
AC50 [2]: 11.2 µM
AC50 (Thromboxane A2 receptor): > 30 µM

C[C@@H]1O[C@@H](O[C@@H]2C=C3CC[C@@H]4[C@H](CC[C@]5(C)[C@@H](c6ccc(=O)oc6)CC[C@]45O)[C@@]3(C)CC2)[C@H](O)[C@H](O)[C@H]1O [PROSCILLARIDIN]
AC50 [3]: > 30 µM

Clc1ccccc1C(c1ccccc1)(c1ccccc1)n1ccnc1 [CLOTRIMAZOLE]
AC50 [4]: 8.78 µM

O=C1C(O)=C([C@H]2CC[C@H](c3ccc(Cl)cc3)CC2)C(=O)c2ccccc21 [ATOVAQUONE]
AC50 (Estrogen receptor): > 30 µM

COc1cccc(C2(O)CCCCC2CN(C)C)c1 (stereo unspecified) [TRAMADOL]
AC50 [4]: > 30 µM
AC50 (B1 bradykinin receptor): > 30 µM
AC50 (Estrogen receptor): > 30 µM
AC50 (Glucagon receptor): > 30 µM
AC50 [5]: > 30 µM
AC50 (Substance-P receptor): > 10 µM
AC50 [6]: > 10 µM

THIMEROSAL
AC50 (Histamine H3 receptor): > 30 µM
AC50 [1]: > 30 µM
AC50 [7]: > 50 µM
AC50 [2]: > 30 µM
AC50 (Thromboxane A2 receptor): > 30 µM

NC(=O)OCC(COC(N)=O)c1ccccc1 [FELBAMATE]
AC50 (Estrogen receptor): > 10 µM

CC/C(=C(\c1ccccc1)c1ccc(OCCN(C)C)cc1)c1ccccc1 [TAMOXIFEN]
AC50 [4]: 6.61 µM

C#C[C@]1(O)CC[C@H]2[C@@H]3[C@H](C)CC4=C(CCC(=O)C4)[C@H]3CC[C@@]21C [TIBOLONE]
AC50 [3]: > 30 µM

Cc1c(OCC(F)(F)F)ccnc1C[S+]([O-])c1nc2ccccc2[nH]1 (stereo unspecified) [LANSOPRAZOLE]
AC50 [4]: > 30 µM
AC50 (B1 bradykinin receptor): > 30 µM
AC50 (Glucagon receptor): > 30 µM
AC50 [5]: > 30 µM
AC50 [7]: > 30 µM
AC50 (Substance-P receptor): 17.2 µM
AC50 [6]: > 10 µM

COc1ccc(CCNCC(O)COc2cccc(C)c2)cc1OC (stereo unspecified) [BEVANTOLOL]
AC50 (Estrogen receptor): > 10 µM
